# Results as given in patent US20120015396A1, “COMPOSITIONS AND METHODS FOR MODULATING THE ACID-SENSING ION CHANNEL (ASIC)” (Department of Veteran's Affair, United States Technology …, priority 2002, published 2012).
# Tests used:
# [1] = tested on: Schaffer collateral-CA1 synapses in hippocampal slices; experiment: Baseline field EPSP recording in hippocampal slices; format: cell-based; details: KA 5 mM; slices from +/+ and −/− mice
# Description: (§1) Transverse hippocampal slices (350-400 μm) were prepared from wild type (+/+) and ASIC knock out (−/−) littermates at 2-4 months of age. For the LTP studies, the applicant was blinded to genotype. The slices were sectioned in ice-cold artificial cerebrospinal fluid (ACSF) containing (in mM) 119 NaCl, 2.5 KCl, 2.5 CaCl2, 1.0 NaH2PO4, 1.3 MgSO4, 26.2 NaHCO3, 11 glucose, pH 7.4, bubbled with 95% O2/5% CO2, and then were incubated in identical solution at 31° C. for 2-5 hours before recording.
# Standard extracellular field potential recording techniques were used. Experiments were performed in a submerged chamber, heated to 31±0.5° C. Field postsynaptic excitatory potentials (EPSPs) were evoked in CA1 stratum radiatum by stimulation of Schaffer collaterals with a bipolar stainless steel electrode that was put at the border of CA3-CA1 subfields and recorded with 3M NaCl-filled glass pipettes (<5 MSΩ) using a biological amplifier (WPI, Iso-DAME, FL., USA). A 100 μs test stimulation was delivered every 30 s by a stimulus isolation unit (Grass, SD9, Mass., USA). […] LTP was measured by normalizing the EPSP slopes after HFS to the mean slope of the baseline EPSP before HFS. Data were digitized (10 kHz), filtered at 1 kHz (eight-pole Bessel Filter), monitored on-line, and stored on hard disk using PULSE 8.41 (HEKA, Lambrecht, Germany). […]
# [2] = tested on: Schaffer collateral-CA1 synapses in hippocampal slices; experiment: LTP induced by HFS in hippocampal slices; format: cell-based, mice; details: 10 μM PMA
# Description: as §1
# Standard extracellular field potential recording techniques were used. Experiments were performed in a submerged chamber, heated to 31±0.5° C. Field postsynaptic excitatory potentials (EPSPs) were evoked in CA1 stratum radiatum by stimulation of Schaffer collaterals with a bipolar stainless steel electrode that was put at the border of CA3-CA1 subfields and recorded with 3M NaCl-filled glass pipettes (<5 MSΩ) using a biological amplifier (WPI, Iso-DAME, FL., USA). A 100 μs test stimulation was delivered every 30 s by a stimulus isolation unit (Grass, SD9, Mass., USA). Input-output curves were obtained by plotting the stimulus voltage against the amplitude of EPSPs. […] Stimulus intensity was adjusted to evoke half-maximal responses. LTP was induced by a high-frequency stimulation (HFS, 100 Hz, 1 s, at test intensity). Paired-pulse facilitation (PPF) was observed by applying paired pulses with different intervals (20, 50 ms). LTP was measured by normalizing the EPSP slopes after HFS to the mean slope of the baseline EPSP before HFS. Data were digitized (10 kHz), filtered at 1 kHz (eight-pole Bessel Filter), monitored on-line, and stored on hard disk using PULSE 8.41 (HEKA, Lambrecht, Germany). Off-line analysis was performed by PATCHMACHINE 1.0 (Hoshi Laboratory, Philadelphia, Pa., USA) and IGORPRO 4.0 (WaveMetrics, Lake Oswego, Oreg., USA). Unless otherwise noted, two-sample t-test was used to calculate statistical
# [3] = tested on: cortical neurons; details: primary cultures of cortical neurons; cited from earlier work
# [4] = target: T1, ASIC channels (Homo sapiens, UniProt P78348); details: cited from earlier work
# T1 sequence (P78348 1-528): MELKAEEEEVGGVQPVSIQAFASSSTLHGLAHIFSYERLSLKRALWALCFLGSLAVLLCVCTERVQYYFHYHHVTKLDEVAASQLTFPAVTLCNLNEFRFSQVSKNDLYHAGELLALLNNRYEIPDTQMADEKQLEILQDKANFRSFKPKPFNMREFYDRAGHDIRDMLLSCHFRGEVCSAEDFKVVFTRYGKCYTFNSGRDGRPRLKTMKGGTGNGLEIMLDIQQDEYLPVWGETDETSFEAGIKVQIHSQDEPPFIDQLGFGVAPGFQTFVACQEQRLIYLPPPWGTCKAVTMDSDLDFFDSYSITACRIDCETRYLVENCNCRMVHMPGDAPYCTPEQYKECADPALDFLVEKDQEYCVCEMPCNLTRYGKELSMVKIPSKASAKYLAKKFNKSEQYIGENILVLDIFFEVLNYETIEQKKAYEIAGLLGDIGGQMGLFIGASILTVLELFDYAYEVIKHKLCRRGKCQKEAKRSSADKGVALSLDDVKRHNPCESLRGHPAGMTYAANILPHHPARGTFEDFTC
compound,measurement,setting,value
"O=C(O)c1cc(=O)c2ccccc2[nH]1 [KA, kynurenic acid]",effect on baseline EPSPs,[1],abolished EPSPs
"CCCCCCCCCCCCCC(=O)O[C@@H]1[C@@H](C)[C@@]2(O)[C@@H](C=C(CO)C[C@]3(O)C(=O)C(C)=C[C@@H]23)[C@@H]2C(C)(C)[C@]12OC(C)=O [PMA, phorbol 12-myristate 13-acetate]",Mean EPSP amplitude at 40 min. following HFS,[2]; +/+ slices,167±15%
same,Mean EPSP amplitude at 40 min. following HFS,[2]; −/− slices,158±11%
same,effect on LTP,[2]; −/− slices,restores LTP
N=C(N)NC(=O)c1nc(Cl)c(N)nc1N [amiloride],effect on H+-evoked currents,[3],inhibition
Phe-Met-Arg-Phe-NH2 [FMRFamide],modulation of the response of ASIC channels to acid,[4],generating a sustained component of current
neuropeptide FF,modulation of the response of ASIC channels to acid,[4],generating a sustained component of current
